Results taken from PMC4144957, “Molecular Interaction Mechanism between 2-Mercaptobenzimidazole and Copper-Zinc Superoxide Dismutase” (PLoS ONE, 2014).

Biological target: T1, Cu/ZnSOD from porcine erythrocytes (Sus scrofa, UniProt P04178)
T1 construct: gene SOD1; native, purchased (Biodee Biotechnology), from porcine erythrocytes; homodimer; human structure 1HL4 used only for docking
Test: NBT photoreduction assay
Type: biochemical
Conditions: read-out: relative activity (%) at 100 nM MBI

T1 sequence (P04178 2-153): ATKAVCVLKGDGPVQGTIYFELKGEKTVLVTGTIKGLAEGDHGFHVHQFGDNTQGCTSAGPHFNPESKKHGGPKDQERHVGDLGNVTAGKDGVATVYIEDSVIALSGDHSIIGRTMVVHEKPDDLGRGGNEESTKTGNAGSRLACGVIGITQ

In the case of S=c1[nH]c2ccccc2[nH]1 [MBI], the activity at 0.1 µM is reported as 89.3 ± 1.2%.
